Experimental findings from patent US9067914B1, “Tropomyosin-related kinase (TRK) inhibitors” (Genzyme Corporation, priority 2013, dated 2015) are described below.

Counter-ions that a name gives are not always drawn.

One test concerns the target TrkB (Homo sapiens (Human), UniProt Q16620). Description: TrkB activity, off-chip mobility shift assay (LabChip 3000). The test is classed as biochemical. The settings on record: 70 μM ATP (ATP Km); n/d = none detected. The text has this: (§1) Reagents and consumables were purchased from Sigma Aldrich, Carna Biosciences, or Caliper Life Sciences. All assay reaction conditions for IC50 determinations were within the linear range with respect to time and enzyme concentration. […] The LabChip 3000 separates and measures the fluorescent signal of fluorescein labeled peptide substrate and fluorescein labeled peptide product present in each well. Results are expressed as percent conversion by measuring peak height for both the substrate and product and dividing the product peak height by the sum of peak heights for both substrate and product.

The target in another test is TrkA (Homo sapiens (Human), UniProt P04629). Description: TrkA activity, off-chip mobility shift assay (LabChip 3000). The settings on record: 55 μM ATP (ATP Km); n/d = none detected. The test is classed as biochemical.
Chain of TrkA (P04629 33-796): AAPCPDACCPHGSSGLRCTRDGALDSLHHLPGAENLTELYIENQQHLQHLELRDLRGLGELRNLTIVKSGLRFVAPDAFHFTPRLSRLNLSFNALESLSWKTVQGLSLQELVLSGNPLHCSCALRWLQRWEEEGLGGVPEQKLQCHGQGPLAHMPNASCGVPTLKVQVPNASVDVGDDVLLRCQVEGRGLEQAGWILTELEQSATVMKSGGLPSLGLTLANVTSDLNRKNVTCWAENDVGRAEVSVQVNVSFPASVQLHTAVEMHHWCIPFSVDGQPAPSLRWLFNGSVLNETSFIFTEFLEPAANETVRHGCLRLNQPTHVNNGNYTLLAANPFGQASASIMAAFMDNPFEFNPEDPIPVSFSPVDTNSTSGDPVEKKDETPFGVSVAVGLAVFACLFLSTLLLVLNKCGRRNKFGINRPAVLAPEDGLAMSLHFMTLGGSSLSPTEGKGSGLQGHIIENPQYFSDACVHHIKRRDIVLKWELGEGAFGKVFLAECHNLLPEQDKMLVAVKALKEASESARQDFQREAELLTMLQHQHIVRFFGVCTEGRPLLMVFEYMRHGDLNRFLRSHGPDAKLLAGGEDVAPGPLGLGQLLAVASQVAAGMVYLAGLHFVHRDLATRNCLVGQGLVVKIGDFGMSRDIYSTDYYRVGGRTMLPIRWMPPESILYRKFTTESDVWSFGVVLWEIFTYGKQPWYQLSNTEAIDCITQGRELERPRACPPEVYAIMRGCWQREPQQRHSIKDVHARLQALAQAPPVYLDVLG
Text: as §1

The subject of test [1] is PGPS knee arthritis in male Lewis rats. As to the kind of experiment: Reactivated peptidoglycan-polysaccharide (PGPS) knee arthritis. The test is classed as in vivo, rat. The settings on record: intra-articular on day -7 (Triamcinolone 0.06 mg; test compound 1 mg). The text has this: Male Lewis rats were acclimated to the testing facility for 7 days. The rats were housed in 5 per cage in shoe-box polycarbonate cages with wire tops, wood chip bedding and suspended food and water bottles.
On day −21, the male Lewis rats were randomized into treatment groups by body weight. The rats were anesthetized and injected with peptidoglycan-polysaccharide (PGPS) into the right knee to induce PGPS arthritis. Arthritis was reactivated on days 0 and 14 by an IV tail injection of PGPS.
The rats were weighed at baseline on days 0, 4, 14 and 18. Knee thickness was measured by caliper at baseline and on days 0, 2, 4, 14, 16 and 18. Gait analysis occurred on days 0-4 and 14-18, with video recording of selected animals on days 3 and 17. Gait analysis was performed by applying ink to the ventral surface of the foot and documenting weight bearing during movement across paper.
The animals were terminated at day 18. Right knees were removed, trimmed of extraneous tissue, and collected into 10% neutral buffered formalin. After two days in the formalin buffer and three days in 10% formic acid decalcifier, the knees were cut into two approximately equal halves in the frontal plane and processed for paraffin embedding and stained with T.Blue. Histological examinations were subsequently performed for bone resorption, inflammation, pannus and cartilage damage.
Body weights, gait deficiency and caliper measurements were analyzed using a one-way analysis of variance (1-way ANOVA) with Dunnett's multiple comparison post-test. Gait scores were analyzed using a Kruskal-Wallis test (non-parametric ANOVA) with Dunn's multiple comparison post-test. Histopathology scores were analyzed using a Kruskal-Wallis test (non-parametric ANOVA) with Dunn's multiple comparison post-test.

Chain of TrkB (Q16620 32-822): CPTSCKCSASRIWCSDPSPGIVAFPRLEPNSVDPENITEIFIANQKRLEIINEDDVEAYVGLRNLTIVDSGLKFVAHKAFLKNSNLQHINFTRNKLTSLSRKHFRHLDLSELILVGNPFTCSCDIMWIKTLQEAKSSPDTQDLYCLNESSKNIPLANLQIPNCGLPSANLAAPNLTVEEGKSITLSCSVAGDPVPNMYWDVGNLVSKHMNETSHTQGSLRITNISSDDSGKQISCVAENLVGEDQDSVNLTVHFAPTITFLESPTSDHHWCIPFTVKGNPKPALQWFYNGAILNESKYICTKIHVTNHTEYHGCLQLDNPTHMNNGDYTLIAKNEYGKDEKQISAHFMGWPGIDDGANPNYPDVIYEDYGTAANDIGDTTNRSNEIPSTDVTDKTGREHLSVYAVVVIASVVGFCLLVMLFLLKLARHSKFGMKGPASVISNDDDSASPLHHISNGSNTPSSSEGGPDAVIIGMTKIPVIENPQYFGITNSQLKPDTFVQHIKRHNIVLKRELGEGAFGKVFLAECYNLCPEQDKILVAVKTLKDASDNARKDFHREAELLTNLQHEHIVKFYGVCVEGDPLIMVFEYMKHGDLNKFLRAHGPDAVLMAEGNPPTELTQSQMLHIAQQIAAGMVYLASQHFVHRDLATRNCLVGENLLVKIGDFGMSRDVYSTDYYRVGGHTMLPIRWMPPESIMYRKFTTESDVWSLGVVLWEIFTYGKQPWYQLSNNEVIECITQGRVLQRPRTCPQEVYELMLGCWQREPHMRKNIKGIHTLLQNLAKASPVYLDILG

As to `COc1cc(Cn2c(N)nc3cc(-c4cnn(C)c4)cnc32)ccc1OCc1ccc(CC(F)(F)F)cc1` [Ex. 3-40-4, 3-(3-methoxy-4-((4-(2,2,2-trifluoroethyl)benzyl)oxy)benzyl)-6-(1-methyl-1H-pyrazol-4-yl)-3H-imidazo[4,5-b]pyridin-2-amine], the concentration for half-maximal inhibition (IC50) (as a rule, the point on the concentration scale where inhibition reaches its midpoint) at TrkB came out at 0.3 nM; on TrkA, 0.2 nM.

With `COc1ccc(COc2ccc(Cn3c(N)nc4cc(C#CC5CCCCC5)cnc43)cc2OC)cn1` [Ex. 3-41, 6-(cyclohexylethynyl)-3-(3-methoxy-4-((6-methoxypyridin-3-yl)methoxy)benzyl)-3H-imidazo[4,5-b]pyridin-2-amine], the 50% inhibitory concentration (IC50) at TrkB is 80 nM; on TrkA, 65 nM.

Take `COc1ccc(COc2ccc(Cn3c(N)nc4cc(C#CCCO)cnc43)cc2OC)cn1` [Ex. 3-42, 4-(2-amino-3-(3-methoxy-4-((6-methoxypyridin-3-yl)methoxy)benzyl)-3H-imidazo[4,5-b]pyridin-6-yl)but-3-yn-1-ol]: the concentration for half-maximal inhibition (IC50) at TrkB came out at 3 nM; on TrkA, 7 nM.

Take `COc1ccc(C(Oc2ccc(Cn3c(N)nc4cc(-c5cnn(C)c5)cnc43)cc2OC)C2CC2)cn1` (centres unmarked) [Ex. 3-43, 3-(4-(cyclopropyl(6-methoxypyridin-3-yl)methoxy)-3-methoxybenzyl)-6-(1-methyl-1H-pyrazol-4-yl)-3H-imidazo[4,5-b]pyridin-2-amine]: the results for the IC50 on TrkB and on TrkA were 51 nM and 58 nM, respectively.

Take `COc1cc2c(cn1)C(Oc1ccc(Cn3c(N)nc4cc(-c5cnn(C)c5)cnc43)cc1OC)CCC2` (centres unmarked) [Ex. 3-44, 3-(3-methoxy-4-((3-methoxy-5,6,7,8-tetrahydroisoquinolin-8-yl)oxy)benzyl)-6-(1-methyl-1H-pyrazol-4-yl)-3H-imidazo[4,5-b]pyridin-2-amine]: the IC50 on TrkB turned out to be 41 nM; on TrkA it was 39 nM.

As for `COc1ccc(COc2ccc(C(C)n3c(N)nc4cc(-c5cnn(C)c5)ccc43)cc2OC)cn1` (centres unmarked) [Ex. 3-45, 1-(1-(3-methoxy-4-((6-methoxypyridin-3-yl)methoxy)phenyl)ethyl)-5-(1-methyl-1H-pyrazol-4-yl)-1H-benzo[d]imidazol-2-amine], the IC50 on TrkB is 1 nM; on TrkA, 3 nM.

In the case of `COc1ccc(COc2ccc(C(C)n3c(N)nc4cc(-c5ccc(F)cc5)ccc43)cc2OC)cn1` (centres unmarked) [Ex. 3-46, 5-(4-fluorophenyl)-1-(1-(3-methoxy-4-((6-methoxypyridin-3-yl)methoxy)phenyl)ethyl)-1H-benzo[d]imidazol-2-amine], the values for the IC50 on TrkB and at TrkA were 37 nM and 85 nM, respectively.

Consider `COc1cc(C(C)n2cnc3cc(-c4ccc(F)cc4)ccc32)ccc1OCc1ccc(C(F)(F)F)nc1` (centres unmarked) [Ex. 3-47, 5-(4-fluorophenyl)-1-(1-(3-methoxy-4-((6-(trifluoromethyl)pyridin-3-yl)methoxy)phenyl)ethyl)-1H-benzo[d]imidazole], for which the half-maximal inhibitory concentration (IC50) came to 427 nM on TrkB and 1240 nM at TrkA.

Turning to `COc1cc(C(C)n2cnc3cc(-c4cnn(C)c4)ccc32)ccc1OCc1ccc(C(F)(F)F)nc1` (centres unmarked) [Ex. 3-48-1, 1-(1-(3-methoxy-4-((6-(trifluoromethyl)pyridin-3-yl)methoxy)phenyl)ethyl)-5-(1-methyl-1H-pyrazol-4-yl)-1H-benzo[d]imidazole], the IC50 turned out to be 14 nM at TrkB and 102 nM on TrkA.

Consider `COc1cc(C(C)n2cnc3cc(C#CCCO)ccc32)ccc1OCc1ccc(C(F)(F)F)nc1` (centres unmarked) [Ex. 3-48-2, 4-(1-(1-(3-methoxy-4-((6-(trifluoromethyl)pyridin-3-yl)methoxy)phenyl)ethyl)-1H-benzo[d]imidazol-5-yl)but-3-yn-1-ol], for which the IC50 on TrkB worked out at 127 nM; at TrkA, 692 nM.

For `COc1cc(C(C)n2cnc3cc(-c4cnn(C)c4)cnc32)ccc1OCc1ccc(C(F)(F)F)nc1` (centres unmarked) [Ex. 3-52, 3-(1-(3-methoxy-4-((6-(trifluoromethyl)pyridin-3-yl)methoxy)phenyl)ethyl)-6-(1-methyl-1H-pyrazol-4-yl)-3H-imidazo[4,5-b]pyridine], the 50% inhibitory concentration (IC50) at TrkB amounted to 1 nM; at TrkA, 7 nM.

With `COc1cc(C(C)n2c(N)nc3cc(-c4cnn(C)c4)cnc32)ccc1OCc1ccc(C(F)(F)F)nc1` (centres unmarked) [Ex. 3-53, 3-(1-(3-methoxy-4-((6-(trifluoromethyl)pyridin-3-yl)methoxy)phenyl)ethyl)-6-(1-methyl-1H-pyrazol-4-yl)-3H-imidazo[4,5-b]pyridin-2-amine], the IC50 was determined as 0.6 nM on TrkB and 0.4 nM at TrkA.

Turning to `COc1cc(C(C)n2c(N)nc3cc(C#CCCO)cnc32)ccc1OCc1ccc(C(F)(F)F)nc1` (centres unmarked) [Ex. 3-55, 4-(2-amino-3-(1-(3-methoxy-4-((6-(trifluoromethyl)pyridin-3-yl)methoxy)phenyl)ethyl)-3H-imidazo[4,5-b]pyridin-6-yl)but-3-yn-1-ol], the IC50 at TrkB and at TrkA was 1 nM throughout.

As to `COc1cc(Cn2cnc3cc(C#CCCO)cnc32)ccc1OCc1ccc(C(F)F)nc1` [Ex. 3-56, 4-(3-(4-((6-(difluoromethyl)pyridin-3-yl)methoxy)-3-methoxybenzyl)-3H-imidazo[4,5-b]pyridin-6-yl)but-3-yn-1-ol], the IC50 at TrkB is 4 nM; at TrkA it was 17 nM.

Regarding `COc1ccc(C(C)Oc2ccc(Cn3cnc4cc(-c5cnn(C)c5)cnc43)cc2OC)cn1` (centres unmarked) [Ex. 3-57, 3-(3-methoxy-4-(1-(6-methoxypyridin-3-yl)ethoxy)benzyl)-6-(1-methyl-1H-pyrazol-4-yl)-3H-imidazo[4,5-b]pyridine formate], the IC50 at TrkB turned out to be 13 nM; at TrkA it was 35 nM.

In the case of `COc1ccc(C(C)Oc2ccc(Cn3cnc4cc(-c5ccnn5C)cnc43)cc2OC)cn1` (centres unmarked) [Ex. 3-58-1, 3-(3-methoxy-4-(1-(6-methoxypyridin-3-yl)ethoxy)benzyl)-6-(1-methyl-1H-pyrazol-5-yl)-3H-imidazo[4,5-b]pyridine formate], the IC50 is 219 nM at TrkB and 449 nM at TrkA.

On to `COc1ccc(-c2cnc3c(c2)ncn3Cc2ccc(OC(C)c3ccc(OC)nc3)c(OC)c2)cn1` (centres unmarked) [Ex. 3-58-2, 3-(3-methoxy-4-(1-(6-methoxypyridin-3-yl)ethoxy)benzyl)-6-(6-methoxypyridin-3-yl)-3H-imidazo[4,5-b]pyridine formate], for which the half-inhibitory concentration (IC50) worked out at 61 nM at TrkB and 160 nM on TrkA.

`COc1ccc(C(C)Oc2ccc(Cn3cnc4cc(-c5ccnc(F)c5)cnc43)cc2OC)cn1` (centres unmarked) [Ex. 3-58-3, 6-(2-fluoropyridin-4-yl)-3-(3-methoxy-4-(1-(6-methoxypyridin-3-yl)ethoxy)benzyl)-3H-imidazo[4,5-b]pyridine formate]: the half-inhibitory concentration (IC50) is 68 nM on TrkB and 215 nM at TrkA.

Take `C[C@]12C=CC(=O)C=C1CC[C@H]1[C@@H]3C[C@@H](O)[C@](O)(C(=O)CO)[C@@]3(C)C[C@H](O)[C@@]12F` [Triamcinolone, reference compound]: in test [1], the Knee caliper measurements result was “significantly reduced on days 2, 4, 16, and 18, as well as prior to the first reactivation on day 0”; the “Reduction of knee caliper AUC” value is 53-106%. For the same compound, the “Gait scores and deficiency, first reactivation” value in test [1] (male Lewis rats, days 1-4) is given as “significantly reduced”. The “Gait scores and deficiency, second reactivation: significant reduction” value in test [1] (male Lewis rats, days 14-18) is “on day 15, 17, and 18”. Further, the “Histopathology: reduction in summed scores” value in test [1] (right knee, day 18) came out at 74%.
